Key:
[1] = tested on: Salmonella enterica subsp. enterica (S enterica ATCC 10708); test: Bactericidal activity of cleaner/disinfecting formulations, DIN EN 1276-2010, dirty conditions; assay type: cell-based; details: BAC 40 ppm in cleaner diluted 1:250; 0.3% bovine albumin, 35° C., 5 min contact time
Method: (§1) For biological activity testing, the following microorganisms were used: • Escherichia coli(E. coli DSM 682) • Salmonella enterica subsp. enterica (S enterica ATCC 10708)
(§2) The imidazolium polymer of example 1 (imidazolium polymer 1) and benzalkonium chloride (BAC) were formulated into various dilutable concentrated hard-surface cleaners. The finished formulations were pre-dissolved 1:200 in standardized hard water (DIN EN 1276-2010) and then diluted to 80% by adding 1 ml of the inoculate and 1 ml of bovine albumin solution to 8 ml of the pre-dissolved cleaner, so that in-test a dilution of 1:250 was obtained. The amounts relate to active substance.
(§3) Antimicrobial testing of the above formulations in 1:250 dilution was done according to European Standard (DIN EN 1276-2010) under dirty conditions, i.e. additional soiling of 0.3% bovine albumin at 35° C. and 5 min contact time. Neutralization was done using the Saponin-containing neutralizer as described in DIN EN 1276 (30 g/l Polysorbate 80+30 g/l Saponin+3 g/l Lecithin). Results are documented in the table below as logarithmic reduction (Ig R) in comparison to the number of microorganisms used for the test.

[2] = tested on: Escherichia coli (E. coli DSM 682); test: as above; assay type: cell-based; details: 0.3% bovine albumin, 35° C., 5 min contact time
Method: as §1, §2, §3
as §2, with “didecyldimethylammonium” for “benzalkonium”, “(DDAC)” for “(BAC)”
as §3, with “80+30 g/I” for “80+30 g/l”, “Saponin+3 g/I” for “Saponin+3 g/l”

Row | SMILES | S. enterica logarithmic reduction (lg R) [1] [lg R] | E. coli logarithmic reduction (lg R) ([2]; BAC 20 ppm in cleaner diluted 1:250) | E. coli logarithmic reduction (lg R) ([2]; BAC 40 ppm in cleaner diluted 1:250) | E. coli logarithmic reduction (lg R) ([2]; DDAC 10 ppm in cleaner diluted 1:250) | E. coli logarithmic reduction (lg R) ([2]; DDAC 20 ppm in cleaner diluted 1:250)
1 | CCCCCCCCCCCC[N+](C)(C)Cc1ccccc1.[Cl-] [BAC, lauryl dimethyl benzyl ammonium chloride] | 0.5 | 0.5 | 2.7 | – | –
2 | CCCCCCCCCC[N+](C)(C)CCCCCCCCCC.[Cl-] [DDAC, didecyldimethylammonium chloride] | – | – | – | 0.2 | 1.2

From patent US20250176548A1, “POLYMERIC IMIDAZOLIUM COMPOUNDS FOR ENHANCING THE ACTIVITY OF ANTIMICROBIAL AGENTS” (BASF SE, priority 2022, published 2025)
